The results in this text go back to paper PMC8151276, “An Integrated Approach toward NanoBRET Tracers for Analysis of GPCR Ligand Engagement” (Molecules, 2021).

Holding throughout (type): binding
One assay has as its target T1, RXFP4 (Homo sapiens, UniProt Q8TDU9).
T1 construct: purchased Promega (in-house HiBiT-GPCR construct library, NanoBRET)
Description: NanoBRET screen HiBiT-RXFP4 in HEK293. As to the method: (§1) Each tracer candidate was screened across the entire library of HiBiT-GPCR constructs using NanoBRET as the detection modality. As depicted in Figure 4A, the specificity of interactions was evaluated through decrease in BRET due to competitive displacement of a bound tracer by excess parental compound. Each tracer was analyzed for binding to each HiBiT-GPCR fusion in the absence and in the presence of competing parental compound. Briefly, HEK293 cells were transfected with HiBiT-GPCR constructs diluted into promoterless DNA to reduce expression and maximize translocation to the cell surface. Each tracer candidate was then screened at concentrations of 1 μM and 0.1 μM across cells expressing these fusions. Cells were treated for 1.5 h with tracer either alone or in the presence of 20 μM competing parental compound (i.e., control). BRET was measured upon addition of purified LgBiT and subsequent complementation with HiBiT genetically fused to a GPCR. The specificity of interactions was assessed through a decrease in BRET signal due to competitive displacement of the bound tracer. To further gauge the robustness of these interactions, the fold response over the control (i.e., BRETtracer/BRETcontrol) was calculated. We chose a 1.5-fold response, which translates to ≥7-fold signal over noise as the minimal threshold required to score an interaction as positive. […]. Below we highlight the screening results obtained for our exemplary fluorescent tracers based on Clozapine, Amitriptyline and AZD1283.
(§2) HiBiT-GPCR DNA constructs were diluted in 10 mM Tris pH 8 to a final concentration of 0.01 μg/μL, arrayed in 96-well plates and stored at −20 °C. For transfection, HEK293 cells were suspended in Opti-MEM (without phenol red) supplemented with 2% fetal bovine serum (Seradigm) and 100 units/mL penicillin–streptomycin (Gibco) at a final concentration of 220,000 cells/mL and dispensed into white 96-well plates at 90 μL/well. Subsequent transfections and screens were carried using an Agilent Bravo Automated Liquid Handling Platform. First, the 96-well HiBiT DNA arrays were diluted 25-fold in Opti-MEM (without serum or phenol red) to a final concentration of 0.0004 μg/μL and 20 μL of the diluted DNAs were transferred into new 96-well plates. Next, promoterless carrier DNA (1 μg/μL) was diluted 25-fold (0.04 μg/μL) and then dispensed into the diluted arrays at 20 μL/well. Following brief mixing, Viafect transfection reagent (Promega) diluted 16-fold into Opti-MEM was dispensed into the plates at 40 μL/well. After mixing by pipetting, plates were incubated for 10 min on the pipetting station deck. The DNA-transfection reagent complexes were then added to plates containing cells. To facilitate the screen, 10 μL of DNA-transfection reagent complexes were added in duplicates to the top 4 and bottom 4 rows, resulting in two identical 48-well arrays per plate. Plates with transfected cells were incubated for 18–20 h at 37 °C/5% CO2. A screen of each tracer across the entire library using two different concentrations requires duplicate plates of transfected cells. Depending on the number of tracers being screened, transfections can be scaled up using the same ratios. The next day, for each tracer, four 20× screening solutions in tracer dilution buffer (Promega) were prepared: two duplicates at final concentration of 20 μM and two duplicates at a final concentration of 2 μM. A competing unmodified compound was added to one of each duplicate at a final concentration of 400 μM. The four resulting solutions were diluted 4-fold in Opti-MEM without serum or phenol red to generate 5× solutions (5 µM and 0.5 µM tracer +/− 100 μM competing compound). To screen the library, a BioTek MultiFlo FX liquid dispenser was used to dispense 22.5 µL of tracer solution to the top 4 rows and 22.5 µL tracer + competing compound solution to the 4 bottom rows. Plates were briefly mixed on an orbital shaker and incubated for 1.5 h at room temperature. […]

Another assay concerns the target T2, FZD7 (Homo sapiens, UniProt O75084).
T2 construct: purchased Promega (in-house HiBiT-GPCR construct library, NanoBRET)
The assay can be described thus: NanoBRET screen HiBiT-FZD7 in HEK293. As to the method:
as §1, §2

Another assay concerns the target T3, FSHR (Homo sapiens, UniProt P23945).
T3 construct: purchased Promega (in-house HiBiT-GPCR construct library, NanoBRET)
T3 sequence (P23945 18-695): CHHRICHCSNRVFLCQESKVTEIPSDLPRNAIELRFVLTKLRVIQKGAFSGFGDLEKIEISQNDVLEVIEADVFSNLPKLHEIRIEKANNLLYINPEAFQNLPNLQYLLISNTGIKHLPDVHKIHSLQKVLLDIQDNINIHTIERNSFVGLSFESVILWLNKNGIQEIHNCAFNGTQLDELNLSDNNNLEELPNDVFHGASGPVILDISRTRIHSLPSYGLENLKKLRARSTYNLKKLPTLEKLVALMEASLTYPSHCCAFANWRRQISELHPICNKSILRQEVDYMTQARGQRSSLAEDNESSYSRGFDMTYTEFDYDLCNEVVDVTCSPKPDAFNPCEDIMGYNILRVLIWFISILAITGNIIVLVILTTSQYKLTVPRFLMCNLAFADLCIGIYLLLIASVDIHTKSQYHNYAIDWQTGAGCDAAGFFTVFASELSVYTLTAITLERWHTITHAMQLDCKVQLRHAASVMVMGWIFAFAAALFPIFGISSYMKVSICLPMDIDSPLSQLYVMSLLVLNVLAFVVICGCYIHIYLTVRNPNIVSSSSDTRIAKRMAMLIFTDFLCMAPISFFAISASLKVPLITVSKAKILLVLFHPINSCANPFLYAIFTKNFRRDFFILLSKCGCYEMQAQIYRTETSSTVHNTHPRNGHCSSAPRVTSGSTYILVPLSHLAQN
The assay can be described thus: NanoBRET screen HiBiT-FSHR in HEK293. As to the method:
as §1, §2
Background: Bioluminescence resonance energy transfer reports proximity on the nanometre scale.

For another assay, the target named is T4, DRD5 (Homo sapiens, UniProt P21918).
T4 construct: purchased Promega (in-house HiBiT-GPCR construct library, NanoBRET)
T4 sequence (P21918 whole entry): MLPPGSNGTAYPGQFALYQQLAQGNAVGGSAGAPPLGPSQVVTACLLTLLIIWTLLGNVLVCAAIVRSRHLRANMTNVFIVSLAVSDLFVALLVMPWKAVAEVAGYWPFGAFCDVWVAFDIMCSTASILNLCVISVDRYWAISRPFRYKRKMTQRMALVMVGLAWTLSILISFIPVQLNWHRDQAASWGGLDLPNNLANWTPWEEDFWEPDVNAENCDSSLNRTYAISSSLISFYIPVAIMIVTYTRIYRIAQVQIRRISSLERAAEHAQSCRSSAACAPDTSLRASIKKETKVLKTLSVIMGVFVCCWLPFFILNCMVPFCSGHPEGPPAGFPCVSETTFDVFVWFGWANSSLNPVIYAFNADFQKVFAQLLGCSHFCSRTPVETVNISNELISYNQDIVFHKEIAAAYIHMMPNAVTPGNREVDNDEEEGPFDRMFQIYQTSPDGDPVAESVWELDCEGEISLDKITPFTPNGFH
Description: NanoBRET screen HiBiT-DRD5 in HEK293. As to the method: as §1, §2

SMILES strings stand for the structures.

T1 sequence (Q8TDU9 whole entry): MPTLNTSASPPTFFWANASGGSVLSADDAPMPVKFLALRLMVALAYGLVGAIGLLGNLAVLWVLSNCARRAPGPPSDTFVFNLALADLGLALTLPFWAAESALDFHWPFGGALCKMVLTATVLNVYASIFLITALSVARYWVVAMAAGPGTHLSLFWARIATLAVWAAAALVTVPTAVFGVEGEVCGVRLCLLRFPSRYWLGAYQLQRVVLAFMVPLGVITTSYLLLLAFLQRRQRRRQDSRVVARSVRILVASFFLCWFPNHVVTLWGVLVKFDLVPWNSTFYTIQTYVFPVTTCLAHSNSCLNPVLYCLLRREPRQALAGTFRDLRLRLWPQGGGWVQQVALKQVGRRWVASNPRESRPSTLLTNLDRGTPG

Regarding `O=C(CCOCCOCCOCCOCCNC(=O)CCc1ccc2n1[B-](F)(F)[N+]1=C(c3ccc[nH]3)C=CC1=C2)NCCCN1CCN(C2=Nc3ccccc3Oc3ccc(Cl)cc32)CC1` [Loxapine-a-2-NB590], the “NanoBRET Fold Response” value on RXFP4 (RXFP4, tracer 0.1μM) was 1.01; on RXFP4 (RXFP4, tracer 1μM), 1.21; on FZD7 (FZD7, tracer 0.1μM), 1.03; at FZD7 (FZD7, tracer 1μM), 1.05; on FSHR (FSHR, tracer 0.1μM), 0.98; at FSHR (FSHR, tracer 1μM) it was 1.16. The “NanoBRET Fold Response” value is recorded as 1.25 at DRD5 (DRD5, tracer 0.1μM) and 2.20 at DRD5 (DRD5, tracer 1μM).
`CCCn1c(=O)c2[nH]c(-c3ccc(OCC(=O)NCCNC(=O)CCOCCNC(=O)c4ccc(CNC(=O)CCc5ccc6n5[B-](F)(F)[N+]5=C(c7ccc[nH]7)C=CC5=C6)cc4)cc3)nc2n(CCC)c1=O` [XAC-3-NB590]: the “NanoBRET Fold Response” value at RXFP4 (RXFP4, tracer 0.1μM) is 1.00; on RXFP4 (RXFP4, tracer 1μM) it was 0.96; at FZD7 (FZD7, tracer 0.1μM), 1.09; on FZD7 (FZD7, tracer 1μM), 1.01; on FSHR (FSHR, tracer 0.1μM), 1.18; on FSHR (FSHR, tracer 1μM) it was 1.04. Also, the “NanoBRET Fold Response” value is 0.99 on DRD5 (DRD5, tracer 0.1μM) and 1.00 on DRD5 (DRD5, tracer 1μM).
On to `CN(C)CCC=C1c2ccccc2CCc2ccc(C(=O)NCCNC(=O)CCOCCOCCOCCOCCNC(=O)CCc3ccc4n3[B-](F)(F)[N+]3=C(c5ccc[nH]5)C=CC3=C4)cc21` [Amitriptyline-a-2-NB590], for which the “NanoBRET Fold Response” value at RXFP4 (tracer at 0.1μM) was found to be 1.05; at RXFP4 (tracer at 1μM), 1.03; at FZD7 (tracer at 0.1μM), 0.89; at FZD7 (tracer at 1μM) it was 0.97; on FSHR (tracer at 0.1μM), 1.02; at FSHR (tracer at 1μM) it was 1.06. The “NanoBRET Fold Response” value on DRD5 (tracer at 0.1μM) worked out at 1.11; on DRD5 (tracer at 1μM), 1.12.
As for `COc1ccccc1N1CCN(CCCCN2C(=O)c3ccc(CNC(=O)CCOCCOCCOCCOCCNC(=O)CCc4ccc5n4[B-](F)(F)[N+]4=C(c6ccc[nH]6)C=CC4=C5)cc3C2=O)CC1` [NAN-190-2-NB590], the “NanoBRET Fold Response” value on RXFP4 (RXFP4, tracer 1μM) was determined as 0.97; at FZD7 (FZD7, tracer 0.1μM), 1.00; on FZD7 (FZD7, tracer 1μM), 1.03; at FSHR (FSHR, tracer 0.1μM), 0.97; on FSHR (FSHR, tracer 1μM) it was 0.97; at DRD5 (DRD5, tracer 0.1μM), 1.02. Moreover, on DRD5 (DRD5, tracer 1μM), the “NanoBRET Fold Response” value is on record as 1.21.
On to `O=C(CCc1ccc2n1[B-](F)(F)[N+]1=C(c3ccc[nH]3)C=CC1=C2)NCc1ccc(C(=O)NCCOCCOCCNCC(O)COc2cccc3ccccc23)cc1` (stereo not drawn) [Propranolol-3-NB590], for which the “NanoBRET Fold Response” value on RXFP4 (RXFP4, 0.1μM) is 1.02; at RXFP4 (RXFP4, 1μM), 1.05; on FZD7 (FZD7, 0.1μM) it was 1.01; at FZD7 (FZD7, 1μM), 1.04; at FSHR (FSHR, 0.1μM), 0.98; at FSHR (FSHR, 1μM) it was 1.04. In addition, the “NanoBRET Fold Response” value at DRD5 (DRD5, 0.1μM) worked out at 1.03; at DRD5 (DRD5, 1μM), 1.00.
As for `COc1ccccc1N1CCN(CCCCN2C(=O)c3ccc(CNC(=O)CCOCCNC(=O)c4ccc(CNC(=O)CCc5ccc6n5[B-](F)(F)[N+]5=C(c7ccc[nH]7)C=CC5=C6)cc4)cc3C2=O)CC1` [NAN-190-3-NB590], the “NanoBRET Fold Response” value on RXFP4 (RXFP4, tracer 0.1μM) was found to be 0.93; on RXFP4 (RXFP4, tracer 1μM), 0.90; on FZD7 (FZD7, tracer 0.1μM), 0.94; at FZD7 (FZD7, tracer 1μM) it was 1.27; at FSHR (FSHR, tracer 0.1μM), 0.88; on FSHR (FSHR, tracer 1μM), 1.12. The “NanoBRET Fold Response” value amounted to 1.05 at DRD5 (DRD5, tracer 0.1μM) and 1.42 on DRD5 (DRD5, tracer 1μM).
In the case of `CN(CCC=C1c2ccccc2CCc2ccccc21)C(=O)CCOCCOCCOCCOCCNC(=O)CCc1ccc2n1[B-](F)(F)[N+]1=C(c3ccc[nH]3)C=CC1=C2` [Amitriptyline-e-2-NB590], the “NanoBRET Fold Response” value at FZD7 (tracer at 1μM) turned out to be 1.02; on DRD5 (tracer at 1μM), 1.11.
On to `N#CN/C(=N\CCNC(=O)c1ccc(N)cc1)NCCCOc1cccc(CN2CCCCC2)c1` [Aminopotentidine (unmodified)], for which the “NanoBRET Fold Response” value turned out to be 1.08 at DRD5 (DRD5, other tracers/Aminopotentidine (unmodified), 0.1μM) and 1.09 at DRD5 (DRD5, other tracers/Aminopotentidine (unmodified), 1μM).
